# Reference: ChEMBL document CHEMBL1139888, “Fungicidal activities of dihydroferulic acid alkyl ester analogues” (2007)
# Assays:
# Type in all cases: functional
# Saccharomyces cerevisiae [1] = assay: Growth inhibition of Saccharomyces cerevisiae slt2delta deletion mutant at 1.6 mM relative to control after 48 hrs
# Saccharomyces cerevisiae [2] = assay: Growth inhibition of Saccharomyces cerevisiae slt2delta deletion mutant at 3.2 mM relative to control after 48 hrs
# Saccharomyces cerevisiae [3] = assay: Antifungal activity against Saccharomyces cerevisiae slt2delta deletion mutant assessed as cell number at 1.6 mM after 48 hrs
# Saccharomyces cerevisiae [4] = assay: Antifungal activity against Saccharomyces cerevisiae slt2delta deletion mutant assessed as cell number at 3.2 mM after 48 hrs
smiles,measurement,setting,value
CCCOC(=O)CCc1ccc(O)c(OC)c1 [DIHYDROFERULIC ACID PROPYL ESTER],inhibition at 1600 µM,Saccharomyces cerevisiae [1],75.5%
same,inhibition at 3200 µM,Saccharomyces cerevisiae [2],90.7%
same,Activity,Saccharomyces cerevisiae [3],1.13
same,Activity,Saccharomyces cerevisiae [4],0.43
